The supplement of paper PMC11061612

How the values were obtained:
Test in all cases: combination Emax (second highest fraction inhibited in the dose matrix, 72 h); higher = more inhibition; extreme values may be limits of the assay
[1] = tested on: A549 (Lung Adenocarcinoma)
Outline: (§1)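 After 24 hours at 37°C and 5% CO2 in 1536-well plates, cells in DMEM/F12 or RPMI plus 10% FBS received two-drug dose matrices for 72 hours. Viability came from CellTiter-Glo 2.0 luminescence and was scaled as inhibition, anchored at 0 by vehicle wells and at 1 by blank wells. Combination Emax is taken as the second-highest inhibition in the matrix, and Bliss excess as the observed combination effect less EA + EB − EA·EB, with EA and EB the single-agent effects.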

[2] = tested on: BICR22 (Oral Cavity Carcinoma)
Outline: as §1

[3] = tested on: CAPAN-2 (Pancreatic Carcinoma)
Outline: as §1

CAS-1 (Glioblastoma) = tested on: CAS-1 (Glioblastoma)
Outline: as §1

[4] = tested on: COLO-320-HSR (Colorectal Carcinoma)
Outline: as §1

[5] = tested on: COR-L311 (Small Cell Lung Carcinoma)
Outline: as §1

[6] = tested on: ECC10 (Gastric Carcinoma)
Outline: as §1

FU97 (Gastric Carcinoma) = tested on: FU97 (Gastric Carcinoma)
Outline: as §1

[7] = tested on: HCC1954 (Breast Carcinoma)
Outline: as §1

[8] = tested on: KARPAS-422 (B-Cell Non-Hodgkin's Lymphoma)
Outline: as §1

LN-405 (Glioblastoma) = tested on: LN-405 (Glioblastoma)
Outline: as §1

[9] = tested on: NCI-H1650 (Lung Adenocarcinoma)
Outline: as §1

[10] = tested on: NCI-H2066 (Squamous Cell Lung Carcinoma)
Outline: as §1

[11] = tested on: NCI-H64 (Small Cell Lung Carcinoma)
Outline: as §1

[12] = tested on: ONS-76 (Other Solid Carcinomas)
Outline: as §1

[13] = tested on: OS-RC-2 (Kidney Carcinoma)
Outline: as §1

PA-1 (Ovarian Carcinoma) = tested on: PA-1 (Ovarian Carcinoma)
Outline: as §1

[14] = tested on: SK-MES-1 (Squamous Cell Lung Carcinoma)
Outline: as §1

[15] = tested on: TT2609-C02 (Thyroid Gland Carcinoma)
Outline: as §1

U-2-OS (Osteosarcoma) = tested on: U-2-OS (Osteosarcoma)
Outline: as §1

| Structure (SMILES) | combination Emax [1] | combination Emax [2] | combination Emax [3] | combination Emax (CAS-1 (Glioblastoma)) | combination Emax [4] | combination Emax [5] | combination Emax [6] | combination Emax (FU97 (Gastric Carcinoma)) | combination Emax [7] | combination Emax [8] | combination Emax (LN-405 (Glioblastoma)) | combination Emax [9] | combination Emax [10] | combination Emax [11] | combination Emax [12] | combination Emax [13] | combination Emax (PA-1 (Ovarian Carcinoma)) | combination Emax [14] | combination Emax [15] | combination Emax (U-2-OS (Osteosarcoma)) |
| --- | --- | --- | --- | --- | --- | --- | --- | --- | --- | --- | --- | --- | --- | --- | --- | --- | --- | --- | --- | --- |
| CN(C)CCCOc1ccc(-c2ccc3ncc4c(c3c2)n(C2CCOCC2)c(=O)n4C)cn1 [AZD0156] + C=CCn1c(=O)c2cnc(Nc3ccc(N4CCN(C)CC4)cc3)nc2n1-c1cccc(C(C)(C)O)n1 [AZD1775] (first compound max 1 µM, partner max 1 µM) | 0.317 | 0.516 | 0.39 | 0.464 | 0.719 | 0.56 | 0.783 | 0.367 | 0.181 | 0.607 | 0.134 | 0.385 | 0.208 | 0.832 | 0.675 | 0.326 | 0.789 | 0.555 | 0.334 | 0.734 |
| CN(C)CCCOc1ccc(-c2ccc3ncc4c(c3c2)n(C2CCOCC2)c(=O)n4C)cn1 [AZD0156] + CCN(CCO)CCCOc1ccc2c(Nc3cc(CC(=O)Nc4cccc(F)c4)[nH]n3)ncnc2c1 [AZD2811] (first compound max 1 µM, 7x7, partner max 1 µM) | 0.595 | 0.375 | 0.122 | 0.263 | 0 | 0.815 | 0.856 | 0.188 | 0.0882 | 0.641 | 0.0969 | 0.101 | 0.192 | 0.461 | 0.293 | 0.11 | 0.407 | 0.204 | 0.258 | 0.152 |
| CN(C)CCCOc1ccc(-c2ccc3ncc4c(c3c2)n(C2CCOCC2)c(=O)n4C)cn1 [AZD0156] + C[C@@H]1COCCN1C2=NC(=NC(=C2)C3(CC3)[S@](=N)(=O)C)C4=C5C=CNC5=NC=C4 [AZD6738] (first compound max 1 µM, 7x7, partner max 10 µM) | 0.789 | 0.724 | 0.395 | 0.582 | 0.652 | 0.408 | 0.332 | 0.414 | 0.435 | 0.653 | 0.376 | 0.376 | 0.35 | 0.732 | 0.942 | 0.425 | 0.85 | 0.73 | 0.144 | 0.856 |
| CN(C)CCCOc1ccc(-c2ccc3ncc4c(c3c2)n(C2CCOCC2)c(=O)n4C)cn1 [AZD0156] + O=C(c1cc(Cc2n[nH]c(=O)c3ccccc23)ccc1F)N1CCN(C(=O)C2CC2)CC1 [Olaparib] (first compound max 3 µM, partner max 3 µM) | 0.374 | 0.135 | 0.291 | 0.449 | 0.301 | 0.393 | 0.299 | 0.422 | 0.218 | 0.56 | 0.182 | 0.226 | 0.215 | 0.145 | 0.235 | 0.269 | 0.479 | 0.407 | 0.152 | 0.201 |
| C=CCn1c(=O)c2cnc(Nc3ccc(N4CCN(C)CC4)cc3)nc2n1-c1cccc(C(C)(C)O)n1 [AZD1775] + C1CN(CCC1(C(=O)N[C@@H](CCO)C2=CC=C(C=C2)Cl)N)C3=NC=NC4=C3C=CN4 [Capivasertib] (first compound max 3 µM, partner max 3 µM) | 0.664 | 0.594 | 0.513 | 0.709 | 0.854 | – | 0.746 | 0.471 | 0.914 | 0.856 | 0.49 | 0.61 | 0.685 | 0.92 | 0.76 | 0.406 | 0.866 | 0.781 | 0.466 | 0.665 |
| C=CCn1c(=O)c2cnc(Nc3ccc(N4CCN(C)CC4)cc3)nc2n1-c1cccc(C(C)(C)O)n1 [AZD1775] + C[C@@H]1COCCN1C2=NC(=NC(=C2)C3(CC3)[S@](=N)(=O)C)C4=C5C=CNC5=NC=C4 [AZD6738] (first compound max 1 µM, partner max 10 µM) | 0.829 | 0.799 | 0.486 | 0.657 | 0.821 | 0.801 | 0.843 | 0.373 | 0.77 | 0.786 | 0.464 | 0.53 | 0.605 | 0.936 | 0.942 | 0.453 | 0.883 | 0.695 | 0.393 | 0.852 |
| C=CCn1c(=O)c2cnc(Nc3ccc(N4CCN(C)CC4)cc3)nc2n1-c1cccc(C(C)(C)O)n1 [AZD1775] + O=C(c1cc(Cc2n[nH]c(=O)c3ccccc23)ccc1F)N1CCN(C(=O)C2CC2)CC1 [Olaparib] (first compound max 1 µM, partner max 10 µM) | 0.458 | 0.508 | 0.394 | 0.52 | 0.606 | 0.587 | 0.796 | 0.281 | 0.218 | 0.678 | 0.176 | 0.403 | 0.377 | 0.869 | 0.662 | 0.298 | 0.756 | 0.5 | 0.358 | 0.637 |
| CN(CCO)CC[C@H](CSc1ccccc1)Nc1ccc(S(=O)(=O)NC(=O)c2ccc(N3CCC([C@@H](O)c4ccccc4-c4ccc(Cl)cc4)CC3)cc2)cc1S(=O)(=O)C(F)(F)F [AZD4320] + Cc1cc2ncnn2cc1Nc1ncc2c(n1)n(C1CCOCC1)c(=O)n2C [AZD7648] (first compound max 1 µM, 7x7, partner max 10 µM) | 0.369 | 0.594 | 0.653 | 0.171 | 0.0909 | 1 | 1 | 0.32 | 0.48 | – | 0.36 | 0.245 | 0.885 | 0.964 | 0.173 | 0.119 | 0.61 | 0.127 | 0.182 | 0.238 |
| COc1nnc2ccc(N3CCC(c4ccc(OCCN5CCN(C)C(=O)[C@H]5C)cc4)CC3)nn12 [AZD5153] + CN(CC[C@H](CSC1=CC=CC=C1)NC2=C(C=C(C=C2)S(=O)(=O)NC(=O)C3=CC=C(C=C3)N4CCC(CC4)[C@H](C5=CC=CC=C5C6=CC=C(C=C6)Cl)O)S(=O)(=O)C(F)(F)F)CCO [AZD4320] (first compound max 1 µM, 7x7, partner max 1 µM) | 0.735 | – | – | 0.587 | – | 1 | – | – | 0.322 | – | 0.723 | 0.419 | – | – | – | 0.292 | 0.9 | 0.631 | 0.424 | 0.319 |
| CC(=O)c1c(C)c2cnc(Nc3ccc(N4CCNCC4)cn3)nc2n(C2CCCC2)c1=O [Palbociclib] + CN(CC[C@H](CSC1=CC=CC=C1)NC2=C(C=C(C=C2)S(=O)(=O)NC(=O)C3=CC=C(C=C3)N4CCC(CC4)[C@H](C5=CC=CC=C5C6=CC=C(C=C6)Cl)O)S(=O)(=O)C(F)(F)F)CCO [AZD4320] (first compound max 10 µM, 7x7, partner max 1 µM) | 0.723 | – | – | 0.405 | – | 1 | – | – | 0.32 | – | 0.69 | 0.184 | – | – | – | 0.365 | 0.872 | 0.289 | 0.29 | 0.355 |
| CCc1c2c(nc3ccc(O)cc13)-c1cc3c(c(=O)n1C2)COC(=O)[C@]3(O)CC [SN-38] + O=C(c1cc(Cc2n[nH]c(=O)c3ccccc23)ccc1F)N1CCN(C(=O)C2CC2)CC1 [Olaparib] (first compound max 0.3 µM, 7x7, partner max 10 µM) | 0.817 | 0.95 | 0.137 | 0.609 | 0.261 | – | 1 | 0.277 | – | 0.957 | 0.413 | 0.575 | 0.0964 | 0.396 | 0.829 | – | 0.848 | – | – | 0.205 |
| C[C@@H](c1ccc2nccn2c1)n1nnc2ncc(-c3cnn(C)c3)nc21 [Savolitinib] + CN(CC[C@H](CSC1=CC=CC=C1)NC2=C(C=C(C=C2)S(=O)(=O)NC(=O)C3=CC=C(C=C3)N4CCC(CC4)[C@H](C5=CC=CC=C5C6=CC=C(C=C6)Cl)O)S(=O)(=O)C(F)(F)F)CCO [AZD4320] (first compound max 1 µM, 7x7, partner max 1 µM) | 0.165 | – | – | 0.176 | – | 1 | – | – | 0.412 | – | 0.455 | 0.182 | – | – | – | 0.324 | 0.465 | 0.18 | 0.174 | 0.385 |
| CC(=O)Nc1cccc(-n2c(=O)n(C3CC3)c(=O)c3c(Nc4ccc(I)cc4F)n(C)c(=O)c(C)c32)c1 [Trametinib] + Cc1nc(-c2cn3c(n2)-c2ccc(-c4cnn(C(C)(C)C(N)=O)c4)cc2OCC3)n(C(C)C)n1 [Taselisib] (first compound max 1 µM, 7x7, partner max 10 µM) | 1 | 1 | 0.578 | 0.957 | 0.338 | 0.751 | 0.989 | – | 0.949 | 0.63 | 0.76 | 0.695 | 0.728 | 0.477 | 0.975 | 0.627 | 1 | 1 | 0.821 | 1 |
